In PubChem BioAssay (NCI):
Several values for one entry are separate records, joined by “and”; a condition that tells them apart may be missing. Identical values can stand only once.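 48-hour exposure; five concentrations; linearly interpolated endpoints. Abbreviation: GI50, concentration required for 50% inhibition of growth. TGI: total growth inhibition.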

How the values were obtained:
Experiment in all cases: NCI tumour cell line growth inhibition, 48 h
786-0 renal = test system: 786-0 renal
A498 renal = test system: A498 renal
A549 NSCLC = test system: A549 NSCLC
ACHN renal = test system: ACHN renal
BT-549 breast = test system: BT-549 breast
CAKI-1 renal = test system: CAKI-1 renal
CCRF-CEM leukemia = test system: CCRF-CEM leukemia
COLO 205 colon = test system: COLO 205 colon
DLD-1 colon = test system: DLD-1 colon
DMS 114 small cell lung = test system: DMS 114 small cell lung
DMS 273 small cell lung = test system: DMS 273 small cell lung
DU-145 prostate = test system: DU-145 prostate
EKVX NSCLC = test system: EKVX NSCLC
HCC-2998 colon = test system: HCC-2998 colon
HCT-116 colon = test system: HCT-116 colon
HCT-15 colon = test system: HCT-15 colon
HL-60(TB) leukemia = test system: HL-60(TB) leukemia
HOP-18 NSCLC = test system: HOP-18 NSCLC
HOP-62 NSCLC = test system: HOP-62 NSCLC
HOP-92 NSCLC = test system: HOP-92 NSCLC
HS 578T breast = test system: HS 578T breast
HT29 colon = test system: HT29 colon
IGROV1 ovarian = test system: IGROV1 ovarian
K-562 leukemia = test system: K-562 leukemia
KM12 colon = test system: KM12 colon
KM20L2 colon = test system: KM20L2 colon
LOX IMVI melanoma = test system: LOX IMVI melanoma
M14 melanoma = test system: M14 melanoma
MALME-3M melanoma = test system: MALME-3M melanoma
MCF7 breast = test system: MCF7 breast
MDA-MB-231 breast = test system: MDA-MB-231 breast
MDA-MB-435 = test system: MDA-MB-435
MOLT-4 leukemia = test system: MOLT-4 leukemia
NCI-H226 lung = test system: NCI-H226 lung
NCI-H23 lung = test system: NCI-H23 lung
NCI-H460 lung = test system: NCI-H460 lung
NCI-H522 lung = test system: NCI-H522 lung
NCI/ADR-RES ovarian = test system: NCI/ADR-RES ovarian
OVCAR-3 ovarian = test system: OVCAR-3 ovarian
OVCAR-4 ovarian = test system: OVCAR-4 ovarian
OVCAR-5 ovarian = test system: OVCAR-5 ovarian
OVCAR-8 ovarian = test system: OVCAR-8 ovarian
P388 leukemia = test system: P388 leukemia
P388/ADR leukemia = test system: P388/ADR leukemia
PC-3 prostate = test system: PC-3 prostate
RPMI-8226 leukemia = test system: RPMI-8226 leukemia
RXF 393 renal = test system: RXF 393 renal
SF-268 CNS = test system: SF-268 CNS
SF-295 CNS = test system: SF-295 CNS
SF-539 CNS = test system: SF-539 CNS
SK-MEL-2 melanoma = test system: SK-MEL-2 melanoma
SK-MEL-28 melanoma = test system: SK-MEL-28 melanoma
SK-MEL-5 melanoma = test system: SK-MEL-5 melanoma
SK-OV-3 ovarian = test system: SK-OV-3 ovarian
SN12C renal = test system: SN12C renal
SN12K1 renal = test system: SN12K1 renal
SNB-19 CNS = test system: SNB-19 CNS
SNB-75 CNS = test system: SNB-75 CNS
SNB-78 CNS = test system: SNB-78 CNS
SR leukemia = test system: SR leukemia
SW-620 colon = test system: SW-620 colon
TK-10 renal = test system: TK-10 renal
U251 CNS = test system: U251 CNS
UACC-257 melanoma = test system: UACC-257 melanoma
UACC-62 melanoma = test system: UACC-62 melanoma
UO-31 renal = test system: UO-31 renal
XF 498 CNS = test system: XF 498 CNS
M19-MEL melanoma = test system: M19-MEL melanoma

SMILES: COc1ccc2[nH]c3c(C)c4ccncc4c(C)c3c2c1
- GI50 (786-0 renal): 0.0436 µM
- TGI (786-0 renal): 1.49 µM
- TGI (A498 renal): 2.1 µM
- TGI (A549 NSCLC): 2.15 µM
- GI50 (ACHN renal): 0.0194 µM
- TGI (ACHN renal): 1.51 µM
- GI50 (BT-549 breast): 0.757 µM
- TGI (BT-549 breast): 2.11 µM
- TGI (CAKI-1 renal): 5.49 µM
- TGI (CCRF-CEM leukemia): 4.7 µM
- TGI (COLO 205 colon): 1.6 µM
- TGI (DLD-1 colon): 1.33 µM
- TGI (DMS 114 small cell lung): 4.49 µM
- TGI (DMS 273 small cell lung): 1.95 µM
- GI50 (DU-145 prostate): 0.13 µM
- TGI (DU-145 prostate): 1.59 µM
- TGI (EKVX NSCLC): 2.71 µM
- TGI (HCC-2998 colon): 5.57 µM
- TGI (HCT-116 colon): 1.5 µM
- TGI (HCT-15 colon): 2.3 µM
- TGI (HL-60(TB) leukemia): 2.42 µM
- TGI (HOP-18 NSCLC): 6.44 µM
- TGI (HOP-62 NSCLC): 3.09 µM
- TGI (HOP-92 NSCLC): 0.935 µM
- GI50 (HS 578T breast): 1.13 µM
- TGI (HS 578T breast): 3.55 µM
- TGI (HT29 colon): 2.4 µM
- TGI (IGROV1 ovarian): 2.41 µM
- TGI (K-562 leukemia): 1.43 µM
- TGI (KM12 colon): 1.68 µM
- TGI (KM20L2 colon): 7.32 µM
- TGI (LOX IMVI melanoma): 4.29 µM
- GI50 (M14 melanoma): 0.29 µM
- TGI (M14 melanoma): 1.63 µM
- TGI (MALME-3M melanoma): 5.73 µM
- TGI (MCF7 breast): 2.2 µM
- GI50 (MDA-MB-231 breast): 0.307 µM
- TGI (MDA-MB-231 breast): 1.87 µM
- GI50 (MDA-MB-435): 0.208 µM
- TGI (MDA-MB-435): 1.67 µM
- TGI (MOLT-4 leukemia): 0.802 µM
- TGI (NCI-H226 lung): 3.89 µM
- TGI (NCI-H23 lung): 2.1 µM
- TGI (NCI-H460 lung): 0.892 µM
- TGI (NCI-H522 lung): 2.47 µM
- TGI (NCI/ADR-RES ovarian): 1.96 µM
- TGI (OVCAR-3 ovarian): 2.46 µM
- TGI (OVCAR-4 ovarian): 1.58 µM
- TGI (OVCAR-5 ovarian): 4.07 µM
- TGI (OVCAR-8 ovarian): 1.92 µM
- TGI (P388 leukemia): 1.87 µM
- TGI (P388/ADR leukemia): 3.47 µM
- GI50 (PC-3 prostate): 0.0843 µM
- TGI (PC-3 prostate): 2.02 µM
- TGI (RPMI-8226 leukemia): 2.73 µM
- TGI (RXF 393 renal): 0.477 µM
- TGI (SF-268 CNS): 4.65 µM
- TGI (SF-295 CNS): 1.26 µM
- TGI (SF-539 CNS): 1.45 µM
- TGI (SK-MEL-2 melanoma): 5.36 µM
- TGI (SK-MEL-28 melanoma): 9.06 µM
- TGI (SK-MEL-5 melanoma): 2.86 µM
- TGI (SK-OV-3 ovarian): 5.16 µM
- TGI (SN12C renal): 2.54 µM
- TGI (SN12K1 renal): 1.31 µM
- TGI (SNB-19 CNS): 7.83 µM
- TGI (SNB-75 CNS): 2.77 µM
- TGI (SNB-78 CNS): 11.7 µM
- TGI (SR leukemia): 6.83 µM
- TGI (SW-620 colon): 1.56 µM
- GI50 (TK-10 renal): 1.12 µM
- TGI (TK-10 renal): 4.37 µM
- TGI (U251 CNS): 4.19 µM
- TGI (UACC-257 melanoma): 8.12 µM
- TGI (UACC-62 melanoma): 2.54 µM
- TGI (UO-31 renal): 4.25 µM
- TGI (XF 498 CNS): 6.66 µM

SMILES: CC/C=C\C/C=C\C/C=C\CCCCCCCC(=O)OC
- TGI (A498 renal): > 100 µM
- TGI (A549 NSCLC): > 100 µM
- TGI (CAKI-1 renal): > 100 µM
- GI50 (CCRF-CEM leukemia): 3.72 µM
- TGI (CCRF-CEM leukemia): > 100 µM
- GI50 (COLO 205 colon): > 100 µM
- TGI (COLO 205 colon): > 100 µM
- TGI (DLD-1 colon): > 100 µM
- GI50 (DMS 114 small cell lung): 83.3 µM
- TGI (DMS 114 small cell lung): > 100 µM
- TGI (DMS 273 small cell lung): > 100 µM
- TGI (EKVX NSCLC): > 100 µM
- TGI (HCC-2998 colon): > 100 µM
- GI50 (HCT-116 colon): 70.6 µM
- TGI (HCT-116 colon): > 100 µM
- TGI (HCT-15 colon): > 100 µM
- TGI (HL-60(TB) leukemia): 49.9 µM
- TGI (HOP-18 NSCLC): > 100 µM
- TGI (HOP-62 NSCLC): > 100 µM
- TGI (HOP-92 NSCLC): > 100 µM
- TGI (HT29 colon): > 100 µM
- TGI (IGROV1 ovarian): > 100 µM
- GI50 (K-562 leukemia): 39.4 µM
- TGI (K-562 leukemia): > 100 µM
- TGI (KM12 colon): > 100 µM
- GI50 (KM20L2 colon): > 100 µM
- TGI (KM20L2 colon): > 100 µM
- GI50 (LOX IMVI melanoma): 25 µM
- TGI (LOX IMVI melanoma): 68.4 µM and 38.3 µM
- GI50 (M19-MEL melanoma): 45.1 µM
- TGI (M19-MEL melanoma): > 100 µM
- TGI (MALME-3M melanoma): > 100 µM
- GI50 (MCF7 breast): 37.8 µM
- TGI (MCF7 breast): > 100 µM
- TGI (MOLT-4 leukemia): > 100 µM
- TGI (NCI-H226 lung): > 100 µM
- TGI (NCI-H23 lung): > 100 µM
- TGI (NCI-H460 lung): > 100 µM
- TGI (NCI-H522 lung): > 100 µM
- TGI (NCI/ADR-RES ovarian): > 100 µM
- TGI (OVCAR-3 ovarian): > 100 µM
- TGI (OVCAR-4 ovarian): > 100 µM
- TGI (OVCAR-5 ovarian): > 100 µM
- GI50 (OVCAR-8 ovarian): 0.0205 µM
- TGI (OVCAR-8 ovarian): 11.8 µM and > 100 µM
- TGI (P388/ADR leukemia): 66.3 µM
- GI50 (RPMI-8226 leukemia): 19.8 µM
- TGI (RPMI-8226 leukemia): 69.9 µM and > 100 µM
- TGI (SF-268 CNS): > 100 µM
- TGI (SF-295 CNS): > 100 µM
- TGI (SF-539 CNS): > 100 µM
- TGI (SK-MEL-2 melanoma): > 100 µM
- TGI (SK-MEL-28 melanoma): > 100 µM
- TGI (SK-MEL-5 melanoma): > 100 µM
- TGI (SK-OV-3 ovarian): > 100 µM
- TGI (SN12C renal): > 100 µM
- TGI (SN12K1 renal): > 100 µM
- TGI (SNB-19 CNS): > 100 µM
- GI50 (SNB-75 CNS): > 100 µM
- TGI (SNB-75 CNS): > 100 µM
- GI50 (SNB-78 CNS): > 100 µM
- TGI (SNB-78 CNS): > 100 µM
- TGI (SW-620 colon): > 100 µM
- TGI (U251 CNS): > 100 µM
- TGI (UACC-257 melanoma): > 100 µM
- TGI (UACC-62 melanoma): > 100 µM
- TGI (UO-31 renal): > 100 µM
- TGI (XF 498 CNS): > 100 µM
